From ChEMBL document CHEMBL5338820, “Discovery and Design of Novel Cyclic Peptides as Specific Inhibitors Targeting CCN2 and Disrupting CCN2/EGFR Interaction for Kidney Fibrosis Treatment” (J Med Chem, 2023)
pKd: −log10 of the molar value. Calls of active or inactive are those of the source. The calls are words filed in the database; no cut-off is given here. Peptide text beside a SMILES is read from it.

How the values were obtained:
[1] = molecular target: T1, CCN2-EGFR (Homo sapiens) (UniProt P00533+P29279); test: Inhibition of His-tagged full length human CCN2 CT domain/human Fc-tagged EGFR protein-protein interaction using TMB as chromogenic substrate at 100 uM incubated for 140 mins by microplate reader assay relative to control
T1 sequence (P00533 whole entry, looked up, one chain of several, the tested form may be a part): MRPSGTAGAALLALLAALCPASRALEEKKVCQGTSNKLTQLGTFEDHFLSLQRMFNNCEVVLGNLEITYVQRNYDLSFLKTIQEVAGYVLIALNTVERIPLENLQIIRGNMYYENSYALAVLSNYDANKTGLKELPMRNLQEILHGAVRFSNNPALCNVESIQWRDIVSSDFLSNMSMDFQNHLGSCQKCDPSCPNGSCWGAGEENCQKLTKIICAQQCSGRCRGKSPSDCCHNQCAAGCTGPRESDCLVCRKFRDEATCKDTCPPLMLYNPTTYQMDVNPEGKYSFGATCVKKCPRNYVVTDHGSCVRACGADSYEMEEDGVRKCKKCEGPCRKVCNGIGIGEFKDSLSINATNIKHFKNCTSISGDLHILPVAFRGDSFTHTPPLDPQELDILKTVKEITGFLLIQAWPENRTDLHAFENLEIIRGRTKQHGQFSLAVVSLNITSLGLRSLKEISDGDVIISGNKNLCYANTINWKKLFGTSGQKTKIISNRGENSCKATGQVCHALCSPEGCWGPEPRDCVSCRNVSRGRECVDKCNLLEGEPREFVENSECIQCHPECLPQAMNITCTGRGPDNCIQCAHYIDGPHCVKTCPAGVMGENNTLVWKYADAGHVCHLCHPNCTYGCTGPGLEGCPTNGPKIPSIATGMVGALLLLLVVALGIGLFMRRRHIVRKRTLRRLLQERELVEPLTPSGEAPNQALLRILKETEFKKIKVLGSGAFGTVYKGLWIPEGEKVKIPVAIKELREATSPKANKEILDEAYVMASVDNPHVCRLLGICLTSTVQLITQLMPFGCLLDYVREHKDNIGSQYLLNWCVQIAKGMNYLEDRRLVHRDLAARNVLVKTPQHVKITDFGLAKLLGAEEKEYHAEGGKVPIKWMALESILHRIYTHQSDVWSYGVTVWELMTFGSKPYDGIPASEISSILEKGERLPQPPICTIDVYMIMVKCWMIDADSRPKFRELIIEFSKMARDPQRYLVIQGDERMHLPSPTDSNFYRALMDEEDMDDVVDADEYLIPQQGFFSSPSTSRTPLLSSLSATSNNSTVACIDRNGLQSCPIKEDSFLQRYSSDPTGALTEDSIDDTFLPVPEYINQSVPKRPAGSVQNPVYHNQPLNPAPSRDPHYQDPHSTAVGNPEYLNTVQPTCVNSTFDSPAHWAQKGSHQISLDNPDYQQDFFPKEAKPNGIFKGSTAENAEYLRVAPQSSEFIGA

[2] = molecular target: T1, CCN2-EGFR (Homo sapiens); test: Inhibition of His-tagged full length human CCN2 FL domain/human Fc-tagged EGFR protein-protein interaction using TMB as chromogenic substrate at 100 uM incubated for 140 mins by microplate reader assay relative to control
[3] = molecular target: T2, CCN family member 2 (Homo sapiens) (UniProt P29279); test: Inhibition of recombinant human CCN2 CT domain expressed in human […] cells assessed as reduction in COL1A1 synthesis at 100 uM incubated for 24 hrs by Western blotting assay; assay type: cell-based
T2 sequence (whole entry): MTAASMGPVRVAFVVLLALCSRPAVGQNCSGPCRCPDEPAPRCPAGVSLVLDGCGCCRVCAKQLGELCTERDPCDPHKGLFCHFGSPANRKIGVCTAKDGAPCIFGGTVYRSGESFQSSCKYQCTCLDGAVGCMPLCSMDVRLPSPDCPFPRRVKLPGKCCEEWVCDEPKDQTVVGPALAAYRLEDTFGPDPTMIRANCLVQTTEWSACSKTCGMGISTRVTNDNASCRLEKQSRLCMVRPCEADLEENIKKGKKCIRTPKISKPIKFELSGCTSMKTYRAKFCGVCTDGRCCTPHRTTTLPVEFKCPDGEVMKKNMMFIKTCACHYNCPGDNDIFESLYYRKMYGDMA

[4] = molecular target: T2, CCN family member 2 (Homo sapiens); test: Inhibition of recombinant human CCN2 CT domain expressed in human […] cells assessed as reduction in fibronectin synthesis at 100 uM incubated for 24 hrs by Western blotting assay; assay type: cell-based
[5] = molecular target: T1, CCN2-EGFR (Homo sapiens); test: Inhibition of His-tagged full length human CCN2 CT domain/human Fc-tagged EGFR protein-protein interaction using TMB as chromogenic substrate at 0.1 mg/ml incubated for 140 mins by microplate reader assay relative to control
[6] = molecular target: T2, CCN family member 2 (Homo sapiens); test: Inhibition of recombinant human CCN2 FL domain expressed in human […] cells assessed as reduction in COL1A1 synthesis at 0.1 mg/ml incubated for 24 hrs by Western blotting assay; assay type: cell-based
[7] = molecular target: T2, CCN family member 2 (Homo sapiens); test: Inhibition of recombinant human CCN2 FL domain expressed in human HK-1 cells assessed as reduction in fibronectin synthesis at 0.1 mg/ml incubated for 24 hrs by Western blotting assay; assay type: cell-based
[8] = molecular target: T2, CCN family member 2 (Homo sapiens); test: Inhibition of recombinant human CCN2 CT domain expressed in human […] cells assessed as reduction in fibronectin synthesis at 0.1 mg/ml incubated for 24 hrs by Western blotting assay; assay type: cell-based
[9] = molecular target: T1, CCN2-EGFR (Homo sapiens); test: Inhibition of His-tagged full length human CCN2 FL domain/human Fc-tagged EGFR protein-protein interaction using TMB as chromogenic substrate at 0.1 mg/ml incubated for 140 mins by microplate reader assay relative to control
[10] = molecular target: T2, CCN family member 2 (Homo sapiens); test: Inhibition of recombinant human CCN2 CT domain expressed in human […] cells assessed as reduction in COL1A1 synthesis at 0.1 mg/ml incubated for 24 hrs by Western blotting assay; assay type: cell-based
[11] = test system: Mus musculus; test: Antifibrotic activity against Unilateral ureteric obstruction ligation induced C57BL/6J mouse kidney fibrosis model assessed as downregulation of fibronectin synthesis at 250 microg/kg,ip administrated for 14 days by Western blotting analysis; assay type: functional, organism-based; conditions: dose 250.0 µg/kg, time 14.0 day
[12] = test system: Mus musculus; test: Antifibrotic activity against Unilateral ureteric obstruction ligation induced C57BL/6J mouse kidney fibrosis model assessed as downregulation of COL1A1 synthesis at 250 microg/kg,ip administrated for 14 days by Western blotting analysis; assay type: functional, organism-based; conditions: dose 250.0 µg/kg, time 14.0 day
[13] = molecular target: T3, CCN family member 2 (Homo sapiens, UniProt P29279); test: Binding affinity to His-tagged full length human CCN2 CT domain assessed as dissociation constant by isothermal titration calorimetry assay
T3 sequence (P29279 whole entry): T2 sequence (whole entry)

[14] = test system: Mus musculus; test: Antifibrotic activity against Unilateral ureteric obstruction ligation induced C57BL/6J mouse kidney fibrosis model assessed as reduction of renal tubular injury at 250 microg/kg,ip administrated for 14 days by hematoxylin and eosin staining based analysis; assay type: functional, organism-based; conditions: dose 250.0 µg/kg, time 14.0 day
[15] = test system: Mus musculus; test: Antifibrotic activity against Unilateral ureteric obstruction ligation induced C57BL/6J mouse kidney fibrosis model assessed as reduction of inflammatory infiltration at 250 microg/kg,ip administrated for 14 days by hematoxylin and eosin staining based analysis; assay type: functional, organism-based; conditions: dose 250.0 µg/kg, time 14.0 day
[16] = Toxicity in Unilateral ureteric obstruction C57BL/6J mouse model assessed as change in hair color at 250 microg/kg,ip administrated for 14 days; conditions: in vivo, 0.25 mg/kg, 336 h, dose 250 µg/kg, time 14 day
[17] = Toxicity in Unilateral ureteric obstruction C57BL/6J mouse model assessed as change in food consumption at 250 microg/kg,ip administrated for 14 days; conditions: in vivo, 0.25 mg/kg, 336 h, dose 250 µg/kg, time 14 day
[18] = molecular target: T2, CCN family member 2 (Homo sapiens); test: Inhibition of recombinant human CCN2 FL domain expressed in human […] cells assessed as reduction in STAT3 phosphorylation at 100 uM incubated for 24 hrs by Western blotting assay; assay type: cell-based
[19] = Toxicity in Unilateral ureteric obstruction C57BL/6J mouse model assessed as change in behaviour at 250 microg/kg,ip administrated for 14 days; conditions: in vivo, 0.25 mg/kg, 336 h, dose 250 µg/kg, time 14 day
[20] = test system: Mus musculus; test: Antifibrotic activity against Unilateral ureteric obstruction ligation induced C57BL/6J mouse kidney fibrosis model assessed as downregulation of EGFR phosphorylation at 250 microg/kg,ip administrated for 14 days by Western blotting analysis; assay type: functional, organism-based; conditions: dose 250.0 µg/kg, time 14.0 day
[21] = test system: Mus musculus; test: Antifibrotic activity against Unilateral ureteric obstruction ligation induced C57BL/6J mouse kidney fibrosis model assessed as downregulation of STAT3 phosphorylation at 250 microg/kg,ip administrated for 14 days by Western blotting analysis; assay type: functional, organism-based; conditions: dose 250.0 µg/kg, time 14.0 day
[22] = Toxicity in Unilateral ureteric obstruction C57BL/6J mouse model assessed as change in body weight at 250 microg/kg,ip administrated for 14 days; conditions: in vivo, 0.25 mg/kg, 336 h, dose 250 µg/kg, time 14 day
[23] = test system: Mus musculus; test: Antifibrotic activity against Unilateral ureteric obstruction ligation induced C57BL/6J mouse kidney fibrosis model assessed as reduction of collagen formation at 250 microg/kg,ip administrated for 14 days by […] staining based analysis; assay type: functional, organism-based; conditions: dose 250.0 µg/kg, time 14.0 day

inhibition [1] [%]	inhibition [2] [%]	inhibition [3]	inhibition [4]	Compound	further results
60	68.1	Active	Active	C[C@@H](O)[C@H](N)C(=O)N[C@H](C(=O)N[C@@H](Cc1c[nH]cn1)C(=O)N[C@@H](Cc1c[nH]cn1)C(=O)N[C@@H](CCCNC(=N)N)C(=O)N1CCC[C@H]1C(=O)N[C@@H](Cc1c[nH]c2ccccc12)C(=O)N[C@H](C(N)=O)[C@@H](C)O)[C@@H](C)O (H-TTHHRPWT-NH2)	
				CC(C)C[C@H](NC(=O)[C@@H](N)CC(C)C)C(=O)N[C@@H](C)C(=O)N[C@@H](CC(=O)O)C(=O)N[C@H](C(=O)N[C@H](C(=O)N[C@@H](Cc1c[nH]cn1)C(=O)N[C@@H](Cc1c[nH]cn1)C(=O)N[C@@H](CCCNC(=N)N)C(=O)N1CCC[C@H]1C(=O)N[C@@H](Cc1c[nH]c2ccccc12)C(=O)N[C@H](C(N)=O)[C@@H](C)O)[C@@H](C)O)[C@@H](C)O (H-LLADTTHHRPWT-NH2)	inhibition [5]: 71.4%; inhibition [6]: Active; inhibition [7]: Active; inhibition [8]: Active; inhibition [9]: 39.5%; inhibition [10]: Active
11	15	inactive	inactive	C[C@@H](O)[C@H](N)C(=O)N[C@@H](Cc1c[nH]cn1)C(=O)N[C@@H](Cc1c[nH]cn1)C(=O)N[C@@H](CCCNC(=N)N)C(=O)N[C@@H](CCCCN)C(=O)N[C@@H](Cc1c[nH]c2ccccc12)C(=O)N[C@H](C(N)=O)[C@@H](C)O (H-THHRKWT-NH2)	
61.9	70.6	Active	Active	C[C@H](N)C(=O)N[C@@H](CC(=O)O)C(=O)N[C@H](C(=O)N[C@H](C(=O)N[C@@H](Cc1c[nH]cn1)C(=O)N[C@@H](Cc1c[nH]cn1)C(=O)N[C@@H](CCCNC(=N)N)C(=O)N1CCC[C@H]1C(=O)N[C@@H](Cc1c[nH]c2ccccc12)C(=O)N[C@H](C(N)=O)[C@@H](C)O)[C@@H](C)O)[C@@H](C)O (H-ADTTHHRPWT-NH2)	
62	66.6	Active	Active	C[C@@H](O)[C@H](N)C(=O)N[C@@H](Cc1c[nH]cn1)C(=O)N[C@@H](Cc1c[nH]cn1)C(=O)N[C@@H](CCCNC(=N)N)C(=O)N1CCC[C@H]1C(=O)N[C@@H](Cc1c[nH]c2ccccc12)C(=O)N[C@H](C(N)=O)[C@@H](C)O (H-THHRPWT-NH2)	
8.1	2.1			C[C@@H](O)[C@H](N)C(=O)N[C@@H](Cc1c[nH]cn1)C(=O)N[C@@H](Cc1c[nH]cn1)C(=O)N[C@@H](CCC(N)=O)C(=O)N1CCC[C@H]1C(=O)N[C@@H](Cc1c[nH]c2ccccc12)C(=O)N[C@H](C(N)=O)[C@@H](C)O (H-THHQPWT-NH2)	
9.4	16	inactive	inactive	C[C@@H](O)[C@H](NC(=O)[C@H](Cc1c[nH]c2ccccc12)NC(=O)[C@@H]1CCCN1C(=O)[C@H](CCCNC(=N)N)NC(=O)[C@H](Cc1c[nH]cn1)NC(=O)[C@@H](N)Cc1c[nH]cn1)C(N)=O (H-HHRPWT-NH2)	
65.8	14.4	inactive	inactive	C[C@@H](O)[C@H](N)C(=O)N[C@@H](Cc1c[nH]cn1)C(=O)N[C@@H](Cc1c[nH]cn1)C(=O)N[C@@H](CCCCN)C(=O)N1CCC[C@H]1C(=O)N[C@@H](Cc1c[nH]c2ccccc12)C(=O)N[C@H](C(N)=O)[C@@H](C)O (H-THHKPWT-NH2)	
63.4	59.7	Active	Active	C[C@@H](O)[C@H](N)C(=O)N[C@@H](Cc1c[nH]cn1)C(=O)N[C@@H](CCCCN)C(=O)N[C@@H](CCCNC(=N)N)C(=O)N1CCC[C@H]1C(=O)N[C@@H](Cc1c[nH]c2ccccc12)C(=O)N[C@H](C(N)=O)[C@@H](C)O (H-THKRPWT-NH2)	
7.9	13.9	inactive	inactive	C[C@@H](O)[C@H](NC(=O)[C@H](Cc1c[nH]c2ccccc12)NC(=O)[C@@H]1CCCN1C(=O)[C@H](CCCNC(=N)N)NC(=O)[C@@H](N)Cc1c[nH]cn1)C(N)=O (H-HRPWT-NH2)	
65.8	63.7	Active	Active	C[C@@H](O)[C@H](NC(=O)[C@H](Cc1c[nH]c2ccccc12)NC(=O)[C@@H]1CCCN1C(=O)[C@H](CCCNC(=N)N)NC(=O)[C@H](Cc1c[nH]cn1)NC(=O)[C@H](Cc1c[nH]cn1)NC(=O)[C@@H](NC(=O)[C@@H](NC(=O)[C@@H](N)CC(=O)O)[C@@H](C)O)[C@@H](C)O)C(N)=O (H-DTTHHRPWT-NH2)	
78.7	62.3	Active	Active	C[C@@H](O)[C@H](N)C(=O)N[C@@H](CCCCN)C(=O)N[C@@H](Cc1c[nH]cn1)C(=O)N[C@@H](CCCNC(=N)N)C(=O)N1CCC[C@H]1C(=O)N[C@@H](Cc1c[nH]c2ccccc12)C(=O)N[C@H](C(N)=O)[C@@H](C)O (H-TKHRPWT-NH2)	Activity [11]: Active; Activity [12]: Active; pKd [13]: 5.41; Activity [14]: Active; Activity [15]: Active; Activity [16]: Non-Toxic; Activity [17]: Non-Toxic; inhibition [18]: Active; Activity [19]: Non-Toxic; Activity [20]: Active; Activity [21]: Active; Activity [22]: Non-Toxic; Activity [23]: Active
67.4	68.8	Active	Active	CC(C)C[C@H](N)C(=O)N[C@@H](C)C(=O)N[C@@H](CC(=O)O)C(=O)N[C@H](C(=O)N[C@H](C(=O)N[C@@H](Cc1c[nH]cn1)C(=O)N[C@@H](Cc1c[nH]cn1)C(=O)N[C@@H](CCCNC(=N)N)C(=O)N1CCC[C@H]1C(=O)N[C@@H](Cc1c[nH]c2ccccc12)C(=O)N[C@H](C(N)=O)[C@@H](C)O)[C@@H](C)O)[C@@H](C)O (H-LADTTHHRPWT-NH2)	
14.2	13.5			CC(C)C[C@H](NC(=O)[C@@H](N)CC(C)C)C(=O)N[C@@H](C)C(=O)N[C@@H](CC(=O)O)C(=O)N[C@H](C(=O)N[C@H](C(=O)N[C@@H](Cc1c[nH]cn1)C(=O)N[C@@H](Cc1c[nH]cn1)C(=O)N[C@@H](CCCNC(=N)N)C(=O)N1CCC[C@H]1C(=O)N[C@@H](Cc1c[nH]c2ccccc12)C(=O)N[C@@H](C)C(N)=O)[C@@H](C)O)[C@@H](C)O (H-LLADTTHHRPWA-NH2)	
61.9	12.4			C[C@@H](O)[C@H](N)C(=O)N[C@@H](Cc1c[nH]cn1)C(=O)N[C@@H](Cc1c[nH]cn1)C(=O)N[C@@H](CCC(=O)O)C(=O)N1CCC[C@H]1C(=O)N[C@@H](Cc1c[nH]c2ccccc12)C(=O)N[C@H](C(N)=O)[C@@H](C)O (H-THHEPWT-NH2)	
